pIC50: −log10 of the molar value. Like-named read-outs stand apart in the source and are kept apart here. Blank lines part the entries; values can stand above or below the compound they belong to.
Key:
K-RasG12V (Capan-1) = assay: Potency assay: cellular pERK (AlphaLISA SureFire or In-Cell Western), Capan-1; format: cell-based; details: Homo sapiens; Capan-1 cells; 4 hours; in at least one of the assays (AlphaLISA or In-Cell Western); read-out: pERK IC50 with respect to K-RasG12V (Capan-1)
Excerpt: The purpose of this assay is to measure the ability of test compounds to inhibit K-Ras in cells. Activated K-Ras induces increased phosphorylation of ERK at Threonine 202 and Tyrosine 204 (PERK). This procedure measures a decrease in cellular pERK in response to test compounds. The procedure described below in Capan-1 cells is applicable to K-RasG12V.
Note: This protocol may be executed substituting other cell lines to characterize inhibitors of other RAS variants, including, for example, NCI-H358 (K-Ras G12C), AsPC-1 (K-Ras G12D), Capan-1 (K-Ras G12V), or NCI-H1355 (K-Ras G13C).
Cells are grown and maintained using media and procedures recommended by the ATCC. On the day prior to compound addition, cells are plated in 384-well cell culture plates (40 μl/well) and grown overnight in a 37° C., 5% CO2 incubator. Test compounds are prepared in 10, 3-fold dilutions in DMSO, with a high concentration of 10 mM. On the day of assay, 40 nL of test compound is added to each well of cell culture plate using an Echo550 liquid handler (LabCyte®). Concentrations of test compound are tested in duplicate. After compound addition, cells are incubated 4 hours at 37° C., 5% CO2. Following incubation, culture medium is removed, and cells are washed once with phosphate buffered saline.
In some experiments, cellular pERK level is determined using the AlphaLISA SureFire Ultra p-ERK1/2 Assay Kit (PerkinElmer). Cells are lysed in 25 μL lysis buffer, with shaking at 600 RPM at room temperature. Lysate (10 μL) is transferred to a 384-well Opti-plate (PerkinElmer) and 5 μL acceptor mix is added. After a 2-hour incubation in the dark, 5 μL donor mix is added, plate is sealed, and incubated 2 hours at room temperature. Signal is read on an Envision plate reader (PerkinElmer) using standard AlphaLISA settings. Analysis of raw data is carried out in Excel (Microsoft) and Prism (GraphPad). Signal is plotted vs. the decadal logarithm of compound concentration, and IC50 is determined by fitting a 4-parameter sigmoidal concentration response model.
In other experiments, cellular pERK is determined by In-Cell Western. Following compound treatment, cells are washed twice with 200 μL tris buffered saline (TBS) and fixed for 15 minutes with 150 μL 4% paraformaldehyde in TBS. Fixed cells are washed 4 times for 5 minutes with TBS containing 0.1% Triton X-100 (TBST) and then blocked with 100 μL Odyssey blocking buffer (LI-COR) for 60 minutes at room temperature. Primary antibody (PERK, CST-4370, Cell Signaling Technology) is diluted 1:200 in blocking buffer, and 50 μL is added to each well and incubated overnight at 4° C. Cells are washed 4 times for 5 minutes with TBST. Secondary antibody (IR-800CW rabbit, LI-COR, diluted 1:800) and DNA stain DRAQ5 (LI-COR, diluted 1:2000) are added and incubated 1-2 hours at room temperature. Cells are washed 4 times for 5 minutes with TBST. Plates are scanned on a Li—COR Odyssey CLx Imager. Analysis of raw data is carried out in Excel (Microsoft) and Prism (GraphPad). Signal is plotted vs. the decadal logarithm of compound concentration, and IC50 is determined by fitting a 4-parameter sigmoidal concentration response model.

Compound: CO[C@@H](C)c1ncc(N2CCN(C3CC3)CC2)cc1-c1c2c3cc(ccc3n1CCO[C@H]1CCOC(C)(C)C1)-c1coc(n1)[C@@H](N1CC3(COC3)C1)[C@H](NC(=O)OC(C)(C)C)C(=O)N1CC3CC(C3)(N1)C(=O)OCC(C)(C)C2
ring closure, isolated yield (from CO[C@@H](C)c1ncc(N2CCN(C3CC3)CC2)cc1-c1c(CC(C)(C)CO)c2cc(-c3coc([C@H]([C@H](NC(=O)OC(C)(C)C)C(=O)N4CC5CC(C(=O)O)(C5)N4)N4CC5(COC5)C4)n3)ccc2n1CCO[C@H]1CCOC(C)(C)C1, ester bond, 18-membered ring, PyBOP/DMAP/DIEA, CH2Cl2, 1.83 mM, 20.0 °C, 15.0 h): 62.5%

pIC50 (K-RasG12V (Capan-1)): > 6.19
Compound: CO[C@@H](C)c1ncc(N2CCN(C3CC3)CC2)cc1-c1c2c3cc(ccc3n1CCOC1CCOCC1)-c1csc(n1)[C@@H](N1CC3(COC3)C1)[C@H](NC(=O)[C@@H]1[C@@H](C)[C@H]1C(=O)N1CCN(C)CC1)C(=O)N1CCC[C@H](N1)C(=O)OCC(C)(C)C2 (atropisomer, axis not shown) [Example A1083]

Compound: tert-butyl ((6^4S,3S,4S,Z)-12-(5-(4-cyclopropylpiperazin-1-yl)-2-((S)-1-methoxyethyl)pyridin-3-yl)-10,10-dimethyl-3-morpholino-5,7-dioxo-11-(2-((tetrahydro-2H-pyran-4-yl)oxy)ethyl)-11H-8-oxa-6^2,6^3-diaza-2(4,2)-thiazola-1(5,3)-indola-6 (2,4)-bicyclo[3.1.1]heptanacycloundecaphane-4-yl) carbamate
ring closure, isolated yield (ester bond, 18-membered ring, EDCI/HOBt/DIEA, CH2Cl2, 4.68 mM, 30.0 °C): 41%

Compound: CO[C@@H](C)c1ncccc1-c1c2c3cc(ccc3n1CCOC1CCOCC1)-c1csc(n1)[C@@H](N1CCOC[C@@H]1C#N)[C@H](NC(=O)OC(C)(C)C)C(=O)N1CCC[C@H](N1)C(=O)OC(C)(C)C2
ring closure, isolated yield (from CO[C@@H](C)c1ncccc1-c1c(CC(C)(C)O)c2cc(-c3csc([C@H]([C@H](NC(=O)OC(C)(C)C)C(=O)N4CCC[C@@H](C(=O)O)N4)N4CCOC[C@@H]4C#N)n3)ccc2n1CCOC1CCOCC1, ester bond, 18-membered ring, EDCI/HOBt/DIEA, CH2Cl2, 10.4 mM, 25.0 °C, 2.0 h): 31%

pIC50 (K-RasG12V (Capan-1)): > 6.19
Compound: CO[C@@H](C)c1ncccc1-c1c2c3cc(ccc3n1C1CN(C3CC3)C1)-c1csc(n1)[C@@H](N1CC3(CCN3C3COC3)C1)[C@H](NC(=O)[C@@H]1[C@@H](C)[C@H]1c1ccncn1)C(=O)N1CCC[C@H](N1)C(=O)OCC(C)(C)C2 (atropisomer, axis not shown) [Example A1076]

Compound: tert-butyl ((6^3S,3R,4S)-1^2-(5-(4-cyclopropylpiperazin-1-yl)-2-((S)-1-methoxyethyl)pyridin-3-yl)-3-ethoxy-10,10-dimethyl-5,7-dioxo-1^1-(2-((tetrahydro-2H-pyran-4-yl)oxy)ethyl)-6^1,6^2,6^3,6^4,6^5,6^6-hexahydro-1^1H-8-oxa-2 (5,2)-oxazola-1(5,3)-indola-6(1,3)-pyridazinacycloundecaphane-4-yl) carbamate
ring closure, isolated yield (cc_pd bond, 18-membered ring, XPhos Pd G3/XPhos/K3PO4, toluene/dioxane/H2O, 53.0 mM, 80.0 °C): 16.3%

Compound: CO[C@@H](C)c1ncc(N2CCN(C3CC3)CC2)cc1-c1c2c3cc(ccc3n1CCOC1CCOCC1)-c1csc(n1)[C@@H](N1CC3(COC3)C1)[C@H](NC(=O)OC(C)(C)C)C(=O)N1CCC[C@H](N1)C(=O)OCC(C)(C)C2
ring closure, isolated yield (from CO[C@@H](C)c1ncc(N2CCN(C3CC3)CC2)cc1-c1c(CC(C)(C)CO)c2cc(-c3csc([C@H]([C@H](NC(=O)OC(C)(C)C)C(=O)N4CCC[C@@H](C(=O)O)N4)N4CC5(COC5)C4)n3)ccc2n1CCOC1CCOCC1, ester bond, 18-membered ring, EDCI/HOBt/DIEA, CH2Cl2, 9.35 mM, 25.0 °C): 27.3%

Compound: C[C@@H]1OC[C@H](C)OCCn2c(c(CC(C)(C)CO[Si](c3ccccc3)(c3ccccc3)C(C)(C)C)c3cc(Br)ccc32)-c2cccnc21
ring closure, isolated yield (from C[C@H](OC[C@H](C)OCCBr)c1ncccc1-c1[nH]c2ccc(Br)cc2c1CC(C)(C)CO[Si](c1ccccc1)(c1ccccc1)C(C)(C)C, amine bond, 11-membered ring, Cs2CO3, DMF, 119.0 mM, 60.0 °C, 1.0 h): 76.9%

Compound: CO[C@@H](C)c1ncccc1-c1c2c3cc(ccc3n1CCO[C@H]1CCOC(C)(C)C1)-c1coc(n1)C[C@H](NC(=O)OC(C)(C)C)C(=O)N1N[C@H](C(=O)OCC(C)(C)C2)C2CC1C2
ring closure, isolated yield (from CO[C@@H](C)c1ncccc1-c1c(CC(C)(C)CO)c2cc(-c3coc(C[C@H](NC(=O)OC(C)(C)C)C(=O)N4N[C@H](C(=O)O)C5CC4C5)n3)ccc2n1CCO[C@H]1CCOC(C)(C)C1, ester bond, 18-membered ring, EDCI/HOBt/DIEA, MeCN, 11.5 mM, 35.0 °C, 2.0 h): 30.6%

pIC50 (K-RasG12V (Capan-1)): > 6.19
Compound: CO[C@@H](C)c1ncccc1-c1c2c3cc(ccc3n1[C@H]1C[C@@H](C#N)C1)-c1coc(n1)[C@@H](OCc1ccccn1)[C@H](NC(=O)[C@H]1[C@H](C)[C@@H]1C)C(=O)N1N[C@H](C(=O)OCC(C)(C)C2)C2CC1C2 [Example A1174]

pIC50 (K-RasG12V (Capan-1)): > 6.19
Compound: CO[C@@H](C)c1ncccc1-c1c2c3cc(ccc3n1C1CN(C3CC3)C1)-c1coc(n1)[C@@H](N1CC3(CCCN3C)C1)[C@H](NC(=O)[C@@H]1[C@@H](C)[C@H]1c1ccncn1)C(=O)N1CCC[C@H](N1)C(=O)OCC(C)(C)C2 (atropisomer, axis not shown) [Example A1086]

pIC50 (K-RasG12V (Capan-1)): > 6.19
Compound: CO[C@@H](C)c1ncccc1-c1c2c3cc(ccc3n1[C@H]1C[C@@H](C#N)C1)-c1csc(n1)[C@@H](N1CC3(CCCN3)C1)[C@H](NC(=O)[C@H]1[C@H](C)[C@@H]1C)C(=O)N1CCC[C@H](N1)C(=O)OCC(C)(C)C2 (atropisomer, axis not shown) [Example A1168]

pIC50 (K-RasG12V (Capan-1)): > 6.19
Compound: CO[C@@H](C)c1ncccc1-c1c2c3cc(ccc3n1C1CN(C3CC3)C1)-c1csc(n1)[C@@H](N1CC3(CCN3C)C1)[C@H](NC(=O)[C@H]1[C@H](C)[C@@H]1C)C(=O)N1CCC[C@H](N1)C(=O)OCC(C)(C)C2 (atropisomer, axis not shown) [Example A1191]

Compound: CO[C@@H](C)c1ncc(N2CCN(C(=O)OCc3ccccc3)CC2)cc1-c1c2c3cc(ccc3n1CCO[C@H]1CCOC(C)(C)C1)-c1nc(co1)[C@@H](N1CCCC1)[C@H](NC(=O)OC(C)(C)C)C(=O)N1N[C@H](C(=O)OCC(C)(C)C2)C2CC1C2
ring closure, isolated yield (from CO[C@@H](C)c1ncc(N2CCN(C(=O)OCc3ccccc3)CC2)cc1-c1c(CC(C)(C)COC(=O)[C@H]2NN(C(=O)[C@@H](NC(=O)OC(C)(C)C)[C@@H](c3coc(Br)n3)N3CCCC3)C3CC2C3)c2cc(B3OC(C)(C)C(C)(C)O3)ccc2n1CCO[C@H]1CCOC(C)(C)C1, cc_pd bond, 18-membered ring, Pd(DtBPF)Cl2/K3PO4, toluene/dioxane/H2O, 15.9 mM, 80.0 °C, 2.0 h): 24%

Compound: CO[C@@H](C)c1ncc([C@@H]2CCN(C3CC3)C2)cc1-c1c2c3cc(ccc3n1CCOC1CCOCC1)-c1csc(n1)[C@@H](N1CC(C)(OC)C1)[C@H](NC(=O)OC(C)(C)C)C(=O)N1CCC[C@H](N1)C(=O)OCC(C)(C)C2
ring closure, isolated yield (from CO[C@@H](C)c1ncc([C@@H]2CCN(C3CC3)C2)cc1-c1c(CC(C)(C)CO)c2cc(-c3csc([C@H]([C@H](NC(=O)OC(C)(C)C)C(=O)N4CCC[C@@H](C(=O)O)N4)N4CC(C)(OC)C4)n3)ccc2n1CCOC1CCOCC1, ester bond, 18-membered ring, EDCI/HOBt/DIEA, CH2Cl2, 9.4 mM, 25.0 °C, 16.0 h): 43.6%

Compound: CO[C@@H](C)c1ncc(N2CCN(C3CC3)CC2)cc1-c1c2c3cc(ccc3n1CCOC1CCOCC1)-c1csc(n1)[C@@H](N1CCCC1)[C@H](NC(=O)OC(C)(C)C)C(=O)N1CCC[C@H](N1)C(=O)OCC(C)(C)C2
ring closure, isolated yield (from CO[C@@H](C)c1ncc(N2CCN(C3CC3)CC2)cc1-c1c(CC(C)(C)CO)c2cc(-c3csc([C@H]([C@H](NC(=O)OC(C)(C)C)C(=O)N4CCC[C@@H](C(=O)O)N4)N4CCCC4)n3)ccc2n1CCOC1CCOCC1, ester bond, 18-membered ring, EDCI/HOBt/DIEA, CH2Cl2, 9.59 mM, 25.0 °C): 54.7%

pIC50 (K-RasG12V (Capan-1)): > 6.19
Compound: CO[C@@H](C)c1ncccc1-c1c2c3cc(ccc3n1[C@H]1C[C@@H](C#N)C1)-c1csc(n1)[C@@H](N1CC3(CCCN3C)C1)[C@H](NC(=O)[C@H]1[C@H](C)[C@@H]1C)C(=O)N1CCC[C@H](N1)C(=O)OCC(C)(C)C2 (atropisomer, axis not shown) [Example A983]

— patent publication US20250154171A1, “RAS INHIBITORS” (Revolution Medicines, Inc., priority 2023, published 2025)
